Measured values taken from US9695155B2, “Herbicidal substituted pyrimidinyloxy benzene compounds” (E. I. DU PONT DE NEMOURS AND COMPANY, priority 2013, dated 2017).

Assays:
giant foxtail = test: Test A preemergence; assay type: in vivo, Setaria faberii; conditions: for Foxtail, Giant plant response rating (0 to 100 scale): 125 g ai/ha; for Foxtail, Giant plant response rating: 500 g ai/ha, 0 to 100 scale where 0 is no effect and 100 is complete control
Summary of the method: (§1)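 Compounds in non-phytotoxic solvent with surfactant applied as soil spray preemergence, or postemergence to plants 2-10 cm at one- to two-leaf stage, in loam/sand. After approximately 10 days in greenhouse, injury rated visually versus untreated controls, 0 (no effect) to 100 (complete control).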

corn = test: Test A preemergence; assay type: in vivo, Zea mays; conditions: for Corn plant response rating (0 to 100 scale): 125 g ai/ha; for Corn plant response rating: 500 g ai/ha, 0 to 100 scale where 0 is no effect and 100 is complete control
Summary of the method: as §1

rice = test: Test B flooded paddy test; assay type: in vivo, Oryza sativa; conditions: Flood, 250 g ai/ha; 0 to 100 scale where 0 is no effect and 100 is complete control
Summary of the method: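 Plants were grown to the 2-leaf stage, then pots were flooded to 3 cm above the soil and compounds were applied directly into the paddy water. That depth was held throughout, and after 13 to 15 days in the greenhouse injury was rated visually against controls on a 0–100 scale (0 no effect, 100 complete control).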

yellow nutsedge [1] = test: Test C preemergence; assay type: in vivo, Cyperus esculentus; conditions: for Nutsedge, Yellow plant response rating: preemergence; for Plant response rating, Nutsedge, Yellow: Preemergence, 62 g ai/ha, scale 0 to 100, 0 no effect, 100 complete control
Summary of the method: (§2)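 Preemergence: seeds sown in a loam soil–sand blend and sprayed with test chemical in a non-phytotoxic solvent mixture containing surfactant. Postemergence: plants at 2 to 18 cm (1- to 4-leaf stage) in peat-based medium, treated with the same formulation. Greenhouse 13 to 15 days, then visual rating 0 (no effect) to 100 (complete control).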

pigweed [2] = test: Test C preemergence; assay type: in vivo, Amaranthus retroflexus; conditions: for Pigweed plant response rating: preemergence; for Plant response rating, Pigweed: Preemergence, 62 g ai/ha, scale 0 to 100, 0 no effect, 100 complete control
Summary of the method: as §2

soybean = test: Test C preemergence; assay type: in vivo, Glycine max; conditions: for Soybean plant response rating: preemergence; for Plant response rating, Soybean: Preemergence, 62 g ai/ha, scale 0 to 100, 0 no effect, 100 complete control
Summary of the method: as §2

velvetleaf = test: Test C preemergence; assay type: in vivo, Abutilon theophrasti; conditions: for Velvetleaf plant response rating: preemergence; for Plant response rating, Velvetleaf: Preemergence, 62 g ai/ha, scale 0 to 100, 0 no effect, 100 complete control
Summary of the method: as §2

blackgrass = test: Test C postemergence; assay type: in vivo, Alopecurus myosuroides; conditions: for Blackgrass plant response rating: 31 g ai/ha; for Blackgrass plant response rating / Plant response rating, Blackgrass: scale 0 to 100 (0 no effect, 100 complete control)
Summary of the method: as §2

Italian ryegrass = test: Test C postemergence; assay type: in vivo, Lolium multiflorum; conditions: for Ryegrass, Italian plant response rating: 31 g ai/ha; for Ryegrass, Italian plant response rating / Plant response rating, Ryegrass, Italian: scale 0 to 100 (0 no effect, 100 complete control)
Summary of the method: as §2

wheat, winter = test: Test C postemergence; assay type: in vivo, Triticum aestivum; conditions: for Wheat plant response rating: 31 g ai/ha; for Wheat plant response rating / Plant response rating, Wheat: scale 0 to 100 (0 no effect, 100 complete control)
Summary of the method: as §2

lambsquarters = test: Test C postemergence; assay type: in vivo, Chenopodium album; conditions: for Lambsquarters plant response rating: 31 g ai/ha; for Lambsquarters plant response rating / Plant response rating, Lambsquarters: scale 0 to 100 (0 no effect, 100 complete control)
Summary of the method: as §2

yellow nutsedge [3] = test: Test C postemergence; assay type: in vivo, Cyperus esculentus; conditions: for Nutsedge, Yellow plant response rating: 31 g ai/ha; for Nutsedge, Yellow plant response rating / Plant response rating, Nutsedge, Yellow: scale 0 to 100 (0 no effect, 100 complete control)
Summary of the method: as §2

pigweed [4] = test: Test C postemergence; assay type: in vivo, Amaranthus retroflexus; conditions: for Pigweed plant response rating: 31 g ai/ha; for Pigweed plant response rating / Plant response rating, Pigweed: scale 0 to 100 (0 no effect, 100 complete control)
Summary of the method: as §2

ragweed = test: Test C postemergence; assay type: in vivo, Ambrosia elatior; conditions: for Ragweed plant response rating: 31 g ai/ha; for Ragweed plant response rating / Plant response rating, Ragweed: scale 0 to 100 (0 no effect, 100 complete control)
Summary of the method: as §2

wild oat = test: Test C postemergence; assay type: in vivo, Avena fatua; conditions: for Oat, Wild plant response rating: 31 g ai/ha; for Oat, Wild plant response rating / Plant response rating, Oat, Wild: scale 0 to 100 (0 no effect, 100 complete control)
Summary of the method: as §2

[5] = 125 g ai/ha, scale 0 (no effect) to 100 (complete control)
[6] = 250 g ai/ha, scale 0 (no effect) to 100 (complete control)
[7] = postemergence, visual rating, 13 to 15 days
[8] = 125 g ai/ha, postemergence, visual rating
[9] = Postemergence, 62 g ai/ha, 13 to 15 days
[10] = 16 g ai/ha, scale 0 to 100 (0 no effect, 100 complete control)
[11] = 16 g ai/ha, postemergence, 0 is no effect, 100 is complete control

N#Cc1cccc(Oc2ncc(Cl)cn2)c1-n1cc(I)cn1 [Compound 204]
Foxtail, Giant plant response rating (0 to 100 scale) (giant foxtail): 100
Foxtail, Giant plant response rating (giant foxtail): 100
Corn plant response rating (0 to 100 scale) (corn): 0
Corn plant response rating (corn): 30
Plant response rating, Rice (rice): 20
Nutsedge, Yellow plant response rating (yellow nutsedge [1]; [5]): 60
Nutsedge, Yellow plant response rating (yellow nutsedge [1]; [6]): 60
Plant response rating, Nutsedge, Yellow (yellow nutsedge [1]): 0
Pigweed plant response rating (pigweed [2]; [5]): 98
Pigweed plant response rating (pigweed [2]; [6]): 98
Plant response rating, Pigweed (pigweed [2]): 100
Soybean plant response rating (soybean; [5]): 65
Soybean plant response rating (soybean; [6]): 80
Plant response rating, Soybean (soybean): 35
Velvetleaf plant response rating (velvetleaf; [5]): 98
Velvetleaf plant response rating (velvetleaf; [6]): 98
Plant response rating, Velvetleaf (velvetleaf): 85
Blackgrass plant response rating (blackgrass; [7]): 5
Plant response rating, Blackgrass (blackgrass; [8]): 10
Plant response rating (0 to 100), Blackgrass (blackgrass; 250 g ai/ha, postemergence): 25
Plant response rating, Blackgrass (blackgrass; [9]): 5
Ryegrass, Italian plant response rating (Italian ryegrass; [7]): 5
Plant response rating, Ryegrass, Italian (Italian ryegrass; [8]): 10
Plant response rating (0 to 100), Ryegrass, Italian (Italian ryegrass; 250 g ai/ha, postemergence): 10
Plant response rating, Ryegrass, Italian (Italian ryegrass; [9]): 5
Wheat plant response rating (wheat, winter; [7]): 5
Plant response rating, Wheat (wheat, winter; [8]): 10
Plant response rating (0 to 100), Wheat (wheat, winter; 250 g ai/ha, postemergence): 10
Plant response rating, Wheat (wheat, winter; [9]): 5
Lambsquarters plant response rating (lambsquarters; [7]): 85
Plant response rating, Lambsquarters (lambsquarters; [8]): 90
Plant response rating (0 to 100), Lambsquarters (lambsquarters; 250 g ai/ha, postemergence): 95
Plant response rating, Lambsquarters (lambsquarters; [9]): 80
Nutsedge, Yellow plant response rating (yellow nutsedge [3]; [7]): 0
Plant response rating, Nutsedge, Yellow (yellow nutsedge [3]; [8]): 0
Plant response rating (0 to 100), Nutsedge, Yellow (yellow nutsedge [3]; 250 g ai/ha, postemergence): 5
Plant response rating, Nutsedge, Yellow (yellow nutsedge [3]; [9]): 10
Pigweed plant response rating (pigweed [4]; [7]): 80
Plant response rating, Pigweed (pigweed [4]; [8]): 95
Plant response rating (0 to 100), Pigweed (pigweed [4]; 250 g ai/ha, postemergence): 98
Plant response rating, Pigweed (pigweed [4]; [9]): 95
Ragweed plant response rating (ragweed; [7]): 25
Plant response rating, Ragweed (ragweed; [8]): 35
Plant response rating (0 to 100), Ragweed (ragweed; 250 g ai/ha, postemergence): 75
Plant response rating, Ragweed (ragweed; [9]): 40
Oat, Wild plant response rating (wild oat; [7]): 20
Plant response rating, Oat, Wild (wild oat; [8]): 15
Plant response rating (0 to 100), Oat, Wild (wild oat; 250 g ai/ha, postemergence): 15
Plant response rating, Oat, Wild (wild oat; [9]): 15

N#Cc1cnn(-c2c(Oc3ncc(Cl)cn3)cccc2C(F)F)c1 [Compound 236]
Foxtail, Giant plant response rating (0 to 100 scale) (giant foxtail): 100
Foxtail, Giant plant response rating (giant foxtail): 100
Corn plant response rating (0 to 100 scale) (corn): 20
Corn plant response rating (corn): 90
Plant response rating, Rice (rice): 0
Nutsedge, Yellow plant response rating (yellow nutsedge [1]; [10]): 0
Nutsedge, Yellow plant response rating (yellow nutsedge [1]; [5]): 75
Plant response rating, Nutsedge, Yellow (yellow nutsedge [1]): 60
Pigweed plant response rating (pigweed [2]; [10]): 100
Pigweed plant response rating (pigweed [2]; [5]): 100
Plant response rating, Pigweed (pigweed [2]): 100
Soybean plant response rating (soybean; [10]): 35
Soybean plant response rating (soybean; [5]): 95
Plant response rating, Soybean (soybean): 90
Velvetleaf plant response rating (velvetleaf; [10]): 65
Velvetleaf plant response rating (velvetleaf; [5]): 100
Plant response rating, Velvetleaf (velvetleaf): 100
Plant response rating (0 to 100), Blackgrass (blackgrass; [11]): 0
Blackgrass plant response rating (blackgrass; [7]): 5
Plant response rating, Blackgrass (blackgrass; [8]): 20
Plant response rating, Blackgrass (blackgrass; [9]): 5
Plant response rating (0 to 100), Ryegrass, Italian (Italian ryegrass; [11]): 0
Ryegrass, Italian plant response rating (Italian ryegrass; [7]): 0
Plant response rating, Ryegrass, Italian (Italian ryegrass; [8]): 0
Plant response rating, Ryegrass, Italian (Italian ryegrass; [9]): 0
Plant response rating (0 to 100), Wheat (wheat, winter; [11]): 0
Wheat plant response rating (wheat, winter; [7]): 0
Plant response rating, Wheat (wheat, winter; [8]): 0
Plant response rating, Wheat (wheat, winter; [9]): 0
Plant response rating (0 to 100), Lambsquarters (lambsquarters; [11]): 80
Lambsquarters plant response rating (lambsquarters; [7]): 85
Plant response rating, Lambsquarters (lambsquarters; [8]): 90
Plant response rating, Lambsquarters (lambsquarters; [9]): 75
Plant response rating (0 to 100), Nutsedge, Yellow (yellow nutsedge [3]; [11]): 0
Nutsedge, Yellow plant response rating (yellow nutsedge [3]; [7]): 0
Plant response rating, Nutsedge, Yellow (yellow nutsedge [3]; [8]): 5
Plant response rating, Nutsedge, Yellow (yellow nutsedge [3]; [9]): 0
Plant response rating (0 to 100), Pigweed (pigweed [4]; [11]): 60
Pigweed plant response rating (pigweed [4]; [7]): 90
Plant response rating, Pigweed (pigweed [4]; [8]): 95
Plant response rating, Pigweed (pigweed [4]; [9]): 90
Plant response rating (0 to 100), Ragweed (ragweed; [11]): 10
Ragweed plant response rating (ragweed; [7]): 15
Plant response rating, Ragweed (ragweed; [8]): 75
Plant response rating, Ragweed (ragweed; [9]): 40
Plant response rating (0 to 100), Oat, Wild (wild oat; [11]): 0
Oat, Wild plant response rating (wild oat; [7]): 0
Plant response rating, Oat, Wild (wild oat; [8]): 5
Plant response rating, Oat, Wild (wild oat; [9]): 5
